Source: ChEMBL document CHEMBL5104218, “Effects of 6-Aminonicotinic Acid Esters on the Reprogrammed Epigenetic State of Distant Metastatic Pancreatic Carcinoma” (ACS Med Chem Lett, 2022)
pIC50, pKi: −log10 of the molar value. Blank lines part the entries; values can stand above or below the compound they belong to. Active and inactive are the calls of the source. The calls are words filed in the database; no cut-off is given here.

Assays:
[1] = molecular target: T1, 6-phosphogluconate dehydrogenase, decarboxylating (Homo sapiens) (UniProt P52209); experiment: Inhibition of 6PGD in human A38-5 cells assessed as increase in intracellular H3K9me3 level at 0.1 to 1000 uM incubated for 45 mins by HTRF assay; type: cell-based; settings: dose 0.1-1000 µM
T1 sequence (whole entry): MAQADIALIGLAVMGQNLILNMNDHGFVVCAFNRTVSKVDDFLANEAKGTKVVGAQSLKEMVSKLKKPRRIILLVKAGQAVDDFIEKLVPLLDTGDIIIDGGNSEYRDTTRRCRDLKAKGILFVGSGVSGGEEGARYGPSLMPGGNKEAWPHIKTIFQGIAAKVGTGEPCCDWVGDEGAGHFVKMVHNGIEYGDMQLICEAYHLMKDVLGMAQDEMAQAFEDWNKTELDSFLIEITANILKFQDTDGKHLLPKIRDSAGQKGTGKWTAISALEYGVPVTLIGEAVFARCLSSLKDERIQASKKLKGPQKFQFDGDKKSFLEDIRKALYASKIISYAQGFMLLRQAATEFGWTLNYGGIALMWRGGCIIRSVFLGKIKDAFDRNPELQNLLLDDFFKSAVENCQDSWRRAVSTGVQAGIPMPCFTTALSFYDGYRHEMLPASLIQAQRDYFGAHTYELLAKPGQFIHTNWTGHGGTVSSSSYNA

[2] = molecular target: T2, Glutathione reductase (Rattus norvegicus, UniProt P70619); experiment: Inhibition of rat glutathione reductase by spectrophotometric method
T2 sequence (P70619 whole entry): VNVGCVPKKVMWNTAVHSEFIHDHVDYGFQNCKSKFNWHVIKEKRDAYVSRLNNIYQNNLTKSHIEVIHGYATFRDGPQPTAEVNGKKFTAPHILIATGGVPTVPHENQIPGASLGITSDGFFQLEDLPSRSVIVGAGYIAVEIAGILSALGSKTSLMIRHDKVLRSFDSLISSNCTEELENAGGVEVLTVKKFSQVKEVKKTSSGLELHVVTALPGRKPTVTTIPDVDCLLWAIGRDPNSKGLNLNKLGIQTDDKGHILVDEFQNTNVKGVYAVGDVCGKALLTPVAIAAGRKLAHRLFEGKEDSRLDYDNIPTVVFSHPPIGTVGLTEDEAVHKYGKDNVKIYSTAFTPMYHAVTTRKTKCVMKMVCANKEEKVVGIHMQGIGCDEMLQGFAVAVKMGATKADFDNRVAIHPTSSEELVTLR

[3] = molecular target: Glucose-6-phosphate 1-dehydrogenase (Rattus norvegicus, UniProt P05370); experiment: Inhibition of rat G6PD by spectrophotometric method
[4] = molecular target: T3, 6-phosphogluconate dehydrogenase, decarboxylating (Rattus norvegicus, UniProt P85968); experiment: Inhibition of rat 6PGD assessed as inhibition constant by spectrophotometric method
T3 sequence (P85968 whole entry): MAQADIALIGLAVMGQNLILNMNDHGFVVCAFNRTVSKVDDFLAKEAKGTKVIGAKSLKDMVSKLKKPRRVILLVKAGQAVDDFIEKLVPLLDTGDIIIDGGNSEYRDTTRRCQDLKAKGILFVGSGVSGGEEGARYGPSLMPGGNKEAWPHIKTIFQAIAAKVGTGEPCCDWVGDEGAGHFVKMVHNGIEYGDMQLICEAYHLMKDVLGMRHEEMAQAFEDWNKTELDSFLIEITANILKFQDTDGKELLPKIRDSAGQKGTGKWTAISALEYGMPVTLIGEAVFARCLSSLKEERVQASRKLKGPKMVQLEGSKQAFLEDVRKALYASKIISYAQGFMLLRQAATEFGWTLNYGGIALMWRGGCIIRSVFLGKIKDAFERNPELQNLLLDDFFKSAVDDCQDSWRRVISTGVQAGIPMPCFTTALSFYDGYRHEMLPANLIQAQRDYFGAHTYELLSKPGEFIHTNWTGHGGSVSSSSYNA

[5] = molecular target: T3, 6-phosphogluconate dehydrogenase, decarboxylating; experiment: Inhibition of rat 6PGD by spectrophotometric method
[6] = Neurotoxicity against Sprague-Dawley rat Primary hippocampal neuron assessed as increase in TUNEL positive cells at 50 uM incubated for 24 hrs by TUNEL staining based microscopy; type: toxicity, cell-based; settings: hippocampal neurone
[7] = molecular target: T1, 6-phosphogluconate dehydrogenase, decarboxylating (Homo sapiens); experiment: Inhibition of 6PGD in human A38-5 cells assessed as increase in Ru-5-P level at 15.6 uM incubated for 72 hrs by mass spectrometry; type: cell-based
[8] = molecular target: T1, 6-phosphogluconate dehydrogenase, decarboxylating (Homo sapiens); experiment: Inhibition of 6PGD in human A38-5 cells assessed as increase in intracellular H3K9me3 expression level at 1 to 250 uM incubated for 72 hrs by western blot analysis; type: cell-based; settings: dose 1-250 µM
[9] = molecular target: T1, 6-phosphogluconate dehydrogenase, decarboxylating (Homo sapiens); experiment: Inhibition of 6PGD in human A38-5 cells assessed as increase in intracellular H3K9me3 level at 1 uM incubated for 45 mins by HTRF assay; type: cell-based
[10] = system: A38-5; experiment: Cytotoxicity against human A38-5 cells assessed as reduction in cell viability at 0.06 to 250 uM incubated for 72 hrs by CellTiter-Glo assay relative to 6AN; type: functional, cell-based; settings: dose 0.06-250 µM
[11] = Neurotoxicity against Sprague-Dawley rat Primary hippocampal neuron assessed as increase in TUNEL positive cells at 5 uM incubated for 24 hrs by TUNEL staining based microscopy; type: toxicity, cell-based; settings: hippocampal neurone
[12] = molecular target: Glucose-6-phosphate 1-dehydrogenase (Homo sapiens) (UniProt P11413); experiment: Inhibition of G6PD in human A38-5 cells assessed as fold increase in G6P level at 15.6 uM incubated for 72 hrs by mass spectrometry; type: cell-based
[13] = molecular target: T1, 6-phosphogluconate dehydrogenase, decarboxylating (Homo sapiens); experiment: Inhibition of 6PGD in human A38-5 cells assessed as fold increase in 6PG level at 15.6 uM incubated for 72 hrs by mass spectrometry; type: cell-based
[14] = molecular target: Glucose-6-phosphate 1-dehydrogenase (Homo sapiens) (UniProt P11413); experiment: Inhibition of G6PD in human A38-5 cells assessed as fold increase in G6P level at 250 uM incubated for 72 hrs by mass spectrometry; type: cell-based
[15] = molecular target: T1, 6-phosphogluconate dehydrogenase, decarboxylating (Homo sapiens); experiment: Inhibition of 6PGD in human A38-5 cells assessed as fold increase in 6PG level at 250 uM incubated for 72 hrs by mass spectrometry; type: cell-based
[16] = molecular target: T1, 6-phosphogluconate dehydrogenase, decarboxylating (Homo sapiens); experiment: Inhibition of 6PGD in human A38-5 cells assessed as fold increase in intracellular H3K9me3 level at 250 uM incubated for 45 mins by HTRF assay; type: cell-based
[17] = molecular target: T1, 6-phosphogluconate dehydrogenase, decarboxylating (Homo sapiens); experiment: Inhibition of 6PGD in human A38-5 cells assessed as increase in Ru-5-P level at 250 uM incubated for 72 hrs by mass spectrometry; type: cell-based

Glucose-6-phosphate 1-dehydrogenase (Homo sapiens), sequence (P11413 whole entry): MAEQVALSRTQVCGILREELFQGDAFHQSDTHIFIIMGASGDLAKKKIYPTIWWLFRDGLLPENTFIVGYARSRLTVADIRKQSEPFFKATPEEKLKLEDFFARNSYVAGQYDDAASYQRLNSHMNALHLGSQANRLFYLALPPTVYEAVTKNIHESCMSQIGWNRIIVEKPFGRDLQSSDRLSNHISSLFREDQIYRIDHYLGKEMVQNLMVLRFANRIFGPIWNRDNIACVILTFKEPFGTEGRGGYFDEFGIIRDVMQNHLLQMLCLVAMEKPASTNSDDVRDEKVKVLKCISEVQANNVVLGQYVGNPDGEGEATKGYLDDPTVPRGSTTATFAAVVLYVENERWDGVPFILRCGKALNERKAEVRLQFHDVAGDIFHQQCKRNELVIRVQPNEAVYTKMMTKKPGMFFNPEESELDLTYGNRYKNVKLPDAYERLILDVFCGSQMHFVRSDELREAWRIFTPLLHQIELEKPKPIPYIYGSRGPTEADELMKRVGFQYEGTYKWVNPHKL
Glucose-6-phosphate 1-dehydrogenase, sequence (P05370 whole entry): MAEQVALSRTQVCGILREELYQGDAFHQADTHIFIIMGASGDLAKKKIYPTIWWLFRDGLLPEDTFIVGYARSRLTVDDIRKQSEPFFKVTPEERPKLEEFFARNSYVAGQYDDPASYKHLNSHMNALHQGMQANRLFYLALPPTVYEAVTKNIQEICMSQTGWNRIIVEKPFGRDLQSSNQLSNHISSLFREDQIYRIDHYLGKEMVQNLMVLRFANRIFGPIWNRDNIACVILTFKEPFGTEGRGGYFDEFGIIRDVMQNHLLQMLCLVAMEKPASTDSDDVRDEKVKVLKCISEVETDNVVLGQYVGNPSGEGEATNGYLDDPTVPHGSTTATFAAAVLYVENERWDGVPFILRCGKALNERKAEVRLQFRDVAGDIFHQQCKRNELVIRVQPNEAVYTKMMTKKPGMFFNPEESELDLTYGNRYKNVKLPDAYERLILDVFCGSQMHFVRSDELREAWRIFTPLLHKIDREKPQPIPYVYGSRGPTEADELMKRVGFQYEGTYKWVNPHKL

activity outcome (qualitative) [1]: Active
SMILES: CCCC(=O)OCOC(=O)c1ccc(N)nc1

pIC50 [2]: 4.34
pIC50 [3]: 4.15
pKi [4]: 7.00
pIC50 [5]: 6.70
SMILES: NC(=O)c1ccc(N)[n+]([C@@H]2O[C@H](COP(=O)(O)OP(=O)(O)OC[C@H]3O[C@@H](n4cnc5c(N)ncnc54)[C@H](OP(=O)(O)O)[C@@H]3O)[C@@H](O)[C@H]2O)c1

activity outcome (qualitative) ([1]; DDE = dose-dependent effect): Dde
inhibition [7]: Active
inhibition [8]: Active
inhibition [9]: Active
fold change (FC) [12]: 2
fold change (FC) [13]: 150
SMILES: CC(OC(=O)OC1CCCCC1)OC(=O)c1ccc(N)nc1 (stereo not given)
Activity [6]: Non-Toxic
Activity [10]: Active
Activity [11]: Non-Toxic

activity outcome (qualitative) ([1]; DDE = dose-dependent effect): Dde
SMILES: CCOC(=O)OC(C)OC(=O)c1ccc(N)nc1 (stereo not given)

activity outcome (qualitative) ([1]; DDE = dose-dependent effect): Dde
SMILES: CCOC(=O)OCOC(=O)c1ccc(N)nc1

SMILES: NC(=O)c1ccc(N)nc1 [6-AMINONICOTINAMIDE]
activity outcome (qualitative) ([1]; DDE = dose-dependent effect): Dde
fold change (FC) [14]: 2
Activity [6]: Toxic
fold change (FC) [15]: 150
fold change (FC) [16]: 2.5
Activity [11]: Toxic
inhibition [17]: Active

activity outcome (qualitative) [1]: Active
SMILES: CC(C)C(=O)OCOC(=O)c1ccc(N)nc1

activity outcome (qualitative) [1]: Active
SMILES: CC(=O)OCOC(=O)c1ccc(N)nc1
